In patent US10759783B2, “Biaryl inhibitors of Bruton'S tyrosine kinase” (BIOGEN MA INC., priority 2013, dated 2020) one finds IC50 data, which are given here for eleven compounds.

The target in assay [1] is T1, BTK enzyme (Homo sapiens, UniProt Q06187).
T1 construct: purchased Upstate 14-552
Briefly: In vitro BTK kinase assay: BTK-POLYGAT-LS assay. In kind it is biochemical. As to conditions: ATP 10 μM, read-out: IC50 (10uMATP). The procedure, abridged:
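Human BTK activity was measured with final 10 μM ATP and 100 nM polyGAT substrate in pH 7.5 Tris buffer with 10 mM MgCl2, DTT, Triton X-100 and casein.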

For assay [2], the target named is BTK (phospho-BTK) in human whole blood (Homo sapiens, UniProt Q06187). Briefly: In vitro PD assay in human whole blood (pBTK assay).

Where only a bound is given, the exact number is not on record here.

Chain of BTK (phospho-BTK) in human whole blood (Q06187 whole entry): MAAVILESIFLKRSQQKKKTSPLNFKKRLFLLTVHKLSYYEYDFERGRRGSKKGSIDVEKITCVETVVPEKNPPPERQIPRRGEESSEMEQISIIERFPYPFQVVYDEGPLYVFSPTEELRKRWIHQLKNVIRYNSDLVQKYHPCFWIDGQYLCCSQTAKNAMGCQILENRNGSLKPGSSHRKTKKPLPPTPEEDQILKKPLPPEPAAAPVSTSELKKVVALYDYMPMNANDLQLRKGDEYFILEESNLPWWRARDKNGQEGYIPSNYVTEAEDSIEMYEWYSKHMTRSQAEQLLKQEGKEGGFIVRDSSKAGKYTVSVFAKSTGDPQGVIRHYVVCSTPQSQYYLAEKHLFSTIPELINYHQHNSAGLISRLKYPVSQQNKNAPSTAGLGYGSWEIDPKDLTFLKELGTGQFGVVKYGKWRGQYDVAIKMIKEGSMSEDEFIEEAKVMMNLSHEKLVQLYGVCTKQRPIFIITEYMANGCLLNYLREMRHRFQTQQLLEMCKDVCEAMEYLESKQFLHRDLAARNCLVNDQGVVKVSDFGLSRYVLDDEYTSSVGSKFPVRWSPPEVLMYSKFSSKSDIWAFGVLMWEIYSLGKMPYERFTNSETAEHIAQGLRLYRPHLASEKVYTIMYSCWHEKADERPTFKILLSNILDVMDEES
T1 sequence (Q06187 whole entry): as above

As for `COCCn1cc(Nc2nccc(-c3ccc(CNC(=O)N4CC(OC(C)C)C4)c(C)c3)n2)cn1` [Example I-213, 3-isopropoxy-N-(4-(2-((1-(2-methoxyethyl)-1H-pyrazol-4-yl)amino)pyrimidin-4-yl)-2-methylbenzyl)azetidine-1-carboxamide], the IC50 (in general, the concentration at which inhibition is half-maximal) in assay [1] was less than 10 nM; in assay [2], less than 500 nM.
The corresponding values for `COC1CN(C(=O)NCc2ccc(-c3ccnc(Nc4cnn(C)c4)n3)cc2C)C1` [Example I-300, 3-methoxy-N-[[2-methyl-4-[2-[(1-methylpyrazol-4-yl)amino]pyrimidin-4-yl]phenyl]methyl]azetidine-1-carboxamideacid] are 10 to 99 nM and less than 500 nM.
The corresponding values for `Cc1cc(-c2ccnc(Nc3cn[nH]c3)n2)ccc1CNC(=O)c1cnc(C(C)(C)C)s1` [Example I-36, N-(4-(2-((1H-pyrazol-4-yl)amino)pyrimidin-4-yl)-2-methylbenzyl)-2-(tert-butyl)thiazole-5-carboxamide] are less than 10 nM and less than 500 nM.
The corresponding values for `Cc1cc(-c2cc(Nc3ccc(N4CCN(C)CC4)cn3)ncn2)ccc1CNC(=O)N1CC(OC(C)(C)C)C1` [Example I-251, 3-tert-butoxy-N-[[2-methyl-4-[6-[[5-(4-methylpiperazin-1-yl)-2-pyridyl]amino]pyrimidin-4-yl]phenyl]methyl]azetidine-1-carboxamide] are less than 10 nM and less than 500 nM.
With `Cn1cc(Nc2nccc(-c3ccc4c(c3)OCCCC4NC(=O)N3CC(OC(C)(C)C)C3)n2)cn1` (stereo not shown) [Example I-189, 3-(tert-butoxy)-N-(8-(2-((1-methyl-1H-pyrazol-4-yl)amino)pyrimidin-4-yl)-2,3,4,5-tetrahydrobenzo[b]oxepin-5-yl)azetidine-1-carboxamide], the half-maximal inhibitory concentration (IC50) was less than 10 nM in assay [1] and less than 500 nM in assay [2].
With `COCCn1cc(Nc2nccc(-c3ccc(CNC(=O)N4CCC(C(C)(C)C)C4)c(C(F)(F)F)c3)n2)cn1` (stereo not shown) [Example I-295, 3-tert-butyl-N-[[4-[2-[[1-(2-methoxyethyl)pyrazol-4-yl]amino]pyrimidin-4-yl]-2-(trifluoromethyl)phenyl]methyl]pyrrolidine-1-carboxamide], the half-inhibitory concentration (IC50) was less than 10 nM in assay [1] and less than 500 nM in assay [2].
The like results for `Cc1cc(-c2ccnc(Nc3cnn([C@H]4CC[C@H](C(=O)O)CC4)c3)n2)ccc1CNC(=O)c1cnc(C(C)(C)C)s1` [Example I-49, trans-4-(4-((4-(4-((2-(tert-butyl)thiazole-5-carboxamido)methyl)-3-methylphenyl)pyrimidin-2-yl)amino)-1H-pyrazol-1-yl)cyclohexanecarboxylic acid] were, in that order, less than 10 nM and less than 500 nM.
The corresponding values for `COCCn1cc(Nc2nccc(-c3ccc4c(c3)CCCC[C@H]4NC(=O)N3CC(OC(C)C)C3)n2)cn1` [Example I-227, (R)-3-isopropoxy-N-(2-(2-((1-(2-methoxyethyl)-1H-pyrazol-4-yl)amino)-pyrimidin-4-yl)-6,7,8,9-tetrahydro-5H-benzo[7]annulen-5-yl)azetidine-1-carboxamide] are less than 10 nM and less than 500 nM.
The like results for `CC(C)(C)C1CCN(C(=O)NCc2ccc(-c3ccnc(Nc4cnn([C@H]5CCNC5)c4)n3)cc2C(F)(F)F)C1` (stereo partly drawn) [Example I-316, 3-tert-butyl-N-[[4-[2-[[1-[(3S)-pyrrolidin-3-yl]pyrazol-4-yl]amino]pyrimidin-4-yl]-2-(trifluoromethyl)phenyl]methyl]pyrrolidine-1-carboxamide] were, in that order, less than 10 nM and less than 500 nM.
Regarding `CC(C)C1CCN(C(=O)NC2CCCCc3cc(-c4ccnc(Nc5cnn(CCO)c5)n4)ccc32)C1` (stereo not shown) [Example I-181, N-(2-(2-((1-(2-hydroxyethyl)-1H-pyrazol-4-yl)amino)pyrimidin-4-yl)-6,7,8,9-tetrahydro-5H-benzo[7]annulen-5-yl)-3-isopropylpyrrolidine-1-carboxamide], the IC50 is less than 10 nM in assay [1] and less than 500 nM in assay [2].
The like results for `Cc1cc(-c2cc(Nc3cc4n(n3)CC(C)N(C)C4)ncn2)ccc1CNC(=O)c1cnc(C(C)(C)C)s1` (stereo not shown) [Example I-279, 2-tert-butyl-N-[[4-[6-[(5,6-dimethyl-6,7-dihydro-4H-pyrazolo[1,5-a]pyrazin-2-yl)amino]pyrimidin-4-yl]-2-methyl-phenyl]methyl]thiazole-5-carboxamide] were, in that order, less than 10 nM and less than 500 nM.
